Test results as given in US20240382472A1, “NEUTROPHIL ELASTASE INHIBITORS FOR USE IN THE TREATMENT OF FIBROSIS” (MEREO BIOPHARMA 4 LIMITED, priority 2021, published 2024).
Several values for one entry are separate records, joined by “and”; a condition that tells them apart may be missing. Equal entries are not always repeated.

Key:
[1] = test system: C3M (collagen Type 3); assay: 12-week study NCT03636347: collagen degradation biomarker C3M; format: in vivo, human; conditions: alvelestat at week 12, three treatment arms pooled, N = 34; ANCOVA
Protocol: (§1) An aspect of NCT03636347 was to investigate the effect of alvelestat on collagen biomarkers in patients with PiZZ, null or rare variant phenotype/genotype alpha-1 anti-trypsin deficient lung disease. % Change from baseline in a number collagen degradation biomarkers were measured over a 12 week period in alvelestat and placebo arms. Inclusion criteria: patients (18 Years to 75 Years) with a confirmed diagnosis of alpha-1-anti-trypsin deficiency and a PiZZ, null or other rare geno/phenotype and serum […] levels of less than 11 uM; FEV1≥20% predicted; Computerised tomography (CT) scan evidence of emphysema; and non-smokers. Alvelestat was given orally at 120 mg twice daily, 240 mg twice daily, or dose escalation up to 240 mg twice daily, so there were three alvelestat treatment arms. Collagen degradation biomarkers […] (collagen Type 1), […] (collagen Type 6), […] (collagen Type 4) C3M (collagen Type 3) were collected at baseline (e.g. before treatment with alvelestat or placebo) and after 12 weeks following treatment with alvelestat or placebo. Biomarkers related to C3M and […] were measured by competitive Enzyme Linked Immunosorbant Assay (ELISA) (Nordic Biosciences, Denmark).[1] Biomarkers related to […] and […] were measured with Nordic Bioscience assays [Chest. […] C1M, […] concentrations were measured in ng/mL. […]

[2] = test system: C4Ma3 (collagen Type 4); assay: 12-week study NCT03636347: collagen degradation biomarker C4Ma3; format: in vivo, human; conditions: alvelestat at week 12, three treatment arms pooled, N = 17; ANCOVA
Protocol: as §1

[3] = biological target: T1, Neutrophil Elastase (NE) (Homo sapiens, UniProt P08246); conditions: from WO2021/053058, Examples 1-5; cited from earlier work
T1 sequence (P08246 30-267): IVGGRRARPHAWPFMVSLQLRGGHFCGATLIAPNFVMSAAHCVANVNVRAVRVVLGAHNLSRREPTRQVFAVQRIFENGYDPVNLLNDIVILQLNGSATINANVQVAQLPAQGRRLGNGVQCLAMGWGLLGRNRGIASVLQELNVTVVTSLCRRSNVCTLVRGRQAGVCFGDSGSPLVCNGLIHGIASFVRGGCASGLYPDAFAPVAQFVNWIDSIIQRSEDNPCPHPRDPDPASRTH

[4] = test system: PRO-C3; assay: Phase 1b study: collagen type 3 synthesis biomarker PRO-C3 (and PRO-C3:C3M ratio) by competitive ELISA; format: in vivo, human
Protocol: (§2) Patients age ≥18 years with BOS and chronic GVHD after HCT were recruited to the National Cancer Institute protocol (NCT02669251). This phase 1 study had 2 parts: 8-week intra-patient dose escalation period, followed by a continuation period that allowed for up to 6 months of treatment. Alvelestat was given orally starting at 60 mg twice daily, increased every 2 weeks to 120 mg twice daily, 180 mg twice daily, and finally 240 mg twice daily.
(§3) Blood biomarkers for neutrophil elastase activity, desmosine, isodesmosine, PRO-C3 and PRO-C6, were collected at baseline (pre-treatment with alvelestat) and after every 2 weeks during alvelestat dose escalations i.e. after 60 mg bid, 120 mg bid, 180 mg bid and 240 mg bid.
(§4) Biomarkers of novel epitopes (neoepitopes) related to collagen turnover and fibrosis (PRO-C6, PRO-C3, C3M, and C6M) were measured by competitive Enzyme Linked Immunosorbant Assay (ELISA) (Nordic Biosciences, Denmark).[1]

[5] = test system: PRO-C6; assay: Phase 1b study: collagen type 6 synthesis biomarker PRO-C6 by competitive ELISA; format: in vivo, human; conditions: above ULN at baseline; during alvelestat treatment; FIG. 3B
Protocol: as §2, §3, §4

[6] = test system: desmosine (DES) and isodesmosine (IDES); assay: Phase 1b study: plasma desmosine and isodesmosine by isotope-dilution LC/MS; format: in vivo, human
Protocol: as §2, §3
DES and IDES levels in the plasma were measured by an isotope-dilution, liquid-chromatography/mass spectrometry method (Huang et al Thorax 2012; 67:502-508).[12] [13]
Results are presented as Mean and Standard Error Mean (SEM). Samples were taken at baseline and at the end of each dose-escalation stage.

[7] = biological target: T1, Neutrophil Elastase (NE); assay: Phase 1b study: ex-vivo zymosan-stimulated neutrophil elastase activity in whole blood; parameters: induce degranulation of white blood cells including neutrophils, releasing an excess of free active NE into the plasma; from tissue; host or cells: whole blood of patients (neutrophils degranulated with zymosan); plasma measured with ProteaseTag Active Neutrophil Elastase Immunoassay (ProAxsis Ltd); conditions: FIG. 2
Protocol: Patients age ≥18 years with BOS and chronic GVHD after HCT were recruited to the National Cancer Institute protocol (NCT02669251). […] Alvelestat was given orally starting at 60 mg twice daily, increased every 2 weeks to 120 mg twice daily, 180 mg twice daily, and finally 240 mg twice daily.
as §3
Ex-vivo zymosan-stimulated Neutrophil Elastase (NE) activity was measured by the following assay: zymosan was added to whole blood to induce degranulation of white blood cells including neutrophils, releasing an excess of free active NE into the plasma. The blood was centrifuged and plasma removed. The level of NE in the plasma sample was measured by the ProteaseTag® Active Neutrophil Elastase Immunoassay (ProAxsis Ltd, Belfast, Northern Ireland).

[8] = test system: C6M (collagen Type 6); assay: 12-week study NCT03636347: collagen degradation biomarker C6M; format: in vivo, human; conditions: alvelestat at week 12, three treatment arms pooled, N = 36; ANCOVA
Protocol: as §1

[9] = Phase 1b study in patients with BOS after HCT: tolerability and clinical outcome; format: in vivo
Protocol: as §2

[10] = from WO2021/053058, Examples 1-5; cited from earlier work
[11] = test system: C1M (collagen Type 1); assay: 12-week study NCT03636347: collagen degradation biomarker C1M; format: in vivo, human; conditions: alvelestat at week 12, three treatment arms pooled, N = 32; alpha-1 anti-trypsin deficient lung disease; ANCOVA
Protocol: as §1

Cc1c(-c2ccnn2C)cc(C(=O)NCc2ccc(S(C)(=O)=O)cn2)c(=O)n1-c1cccc(C(F)(F)F)c1 [alvelestat, N-{[5-(methanesulfonyl)pyridin-2-yl]methyl}-6-methyl-5-(1-methyl-1H-pyrazol-5-yl)-2-oxo-1-[3-(trifluoromethyl)phenyl]-1,2-dihydropyridine-3-carboxamide]
C3M change from baseline (%), LS Means (SE) [1]: −1.7 (4.08) %
C4Ma3 change from baseline (%), LS Means (SE) [2]: −6.6 (8.96) %
Inhibition of neutrophil elastase (NE) [3]: potent and specific inhibitor
Collagen synthesis as measured by PRO-C3 ([4]; above ULN at baseline, during alvelestat treatment, FIG. 3A): declined
Ratio of PRO-C3 to C3M ([4]; blood samples during the study, n=7, FIG. 4): decrease
Collagen synthesis as measured by PRO-C6 [5]: declined
DES and IDES plasma level, mean (SEM) ([6]; patients with BOS after HCT, N=7, week 8 of dose escalation 60 to 240 mg twice daily oral, baseline 0.464): 0.380 (SEM 0.0419) ng/ml
DES and IDES mean within subject % change from baseline (CFB) ([6]; week 8 of dose escalation, SEM 6.794, FIG. 1): −16.2%
Ex vivo zymosan stimulated elastase activity, course ([7]; over the dose escalation period, N=7): progressive decrease
Suppression of ex vivo zymosan stimulated elastase activity ([7]; some subjects, dose escalation period): 100%
C6M change from baseline (%), LS Means (SE) [8]: 1.1% and 1.1 (5.52) %
Tolerability of dose escalation ([9]; all 7 patients, up to maximum dose 240 mg twice daily): able to tolerate dose escalation
Lung disease outcome (FEV1% predicted at end of treatment no worse than 10% below baseline level) ([9]; the 6 patients with biomarker suppression): improved or stable lung disease
Patients with consistent suppressive effect on biomarkers of elastase activity and collagen turnover ([9]; treated patients, phase 1b): 6 of 7
Effect against GVHD [10]: protective effect
C1M change from baseline (%), LS Means (SE) [11]: −0.6% and −0.6 (49.42) %
